These results are taken from patent publication US9145354B2, “Pharmaceutical compounds” (priority 2011, dated 2015).

Counter-ions that a name gives are not always drawn. Like-named read-outs stand apart in the source and are kept apart here.

The target of the assay is full length NS3/4a (Hepatitis C virus genotype 1b (isolate BK) (HCV), UniProt P26663). Nature of the assay: NS3 Protease Assay (Example A), FRET-based. The format is biochemical. The gist of the method:
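Initial rates were taken from fluorescence progress curves over 30 min at room temperature, and IC50 was fitted across replicates. In-house full-length NS3/4a cleaved a FRET peptide (5-FAMsp/QXL520) from the NS4A/B site. Medium: 50 mM Tris pH8, 20 mM DTT, 1% CHAPS, 10% glycerol, 5% DMSO.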

[1] abbreviates: HCV NS3 protease assay, full length NS3/4a, read-out: Assay A IC50 (μM) average.
The mark [2] stands for this setting: stated as IC50 less than 30 μM or at least 40% inhibition at a concentration of 100 μM, read-out: IC50 against the protease activity of the full length NS3/4a.
[3] abbreviates: read-out: IC50 against the protease activity of the full length NS3/4a.

full length NS3/4a, sequence (P26663 1027-1657): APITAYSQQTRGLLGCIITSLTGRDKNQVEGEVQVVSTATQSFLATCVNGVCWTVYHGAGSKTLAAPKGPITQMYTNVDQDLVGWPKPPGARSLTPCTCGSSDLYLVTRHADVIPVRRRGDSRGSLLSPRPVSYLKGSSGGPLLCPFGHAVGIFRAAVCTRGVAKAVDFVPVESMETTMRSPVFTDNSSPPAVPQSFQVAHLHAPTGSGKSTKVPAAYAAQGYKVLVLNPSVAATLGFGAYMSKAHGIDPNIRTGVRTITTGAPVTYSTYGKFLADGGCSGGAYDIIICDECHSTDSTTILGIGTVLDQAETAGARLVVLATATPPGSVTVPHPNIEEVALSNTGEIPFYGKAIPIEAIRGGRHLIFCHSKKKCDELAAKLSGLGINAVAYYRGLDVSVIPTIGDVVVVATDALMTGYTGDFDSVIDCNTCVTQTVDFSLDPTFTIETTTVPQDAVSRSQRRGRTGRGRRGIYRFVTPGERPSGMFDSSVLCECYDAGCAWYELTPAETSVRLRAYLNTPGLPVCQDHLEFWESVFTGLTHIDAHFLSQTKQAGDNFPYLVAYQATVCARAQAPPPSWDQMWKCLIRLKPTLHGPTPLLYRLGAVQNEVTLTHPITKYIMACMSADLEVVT

Regarding `CCC(NC1(C(N)=O)CC1)c1ccc(Cl)c(C(=O)c2ccccc2)c1F` (stereo not drawn) [Example 184, 1-[1-(3-Benzoyl-4-chloro-2-fluorophenyl)-propylamino]-cyclopropanecarboxylic acid amide.HCl], 10 µM produced 22% inhibition. Take `NC(=O)CCN[C@@H](c1ccc(Cl)c(C(=O)c2cnc(N)cn2)c1F)C1CC1` [Example 185, 3-{[(R)-{3-[(5-aminopyrazin-2-yl)carbonyl]-4-chloro-2-fluorophenyl}(cyclo-propyl)methyl]amino}-propanamide]: the IC50 under setting [1] came out at 0.6 µM. `CC[C@@H](N[C@@H](C)CC(N)=O)c1ccc(Cl)c(C(=O)c2ccc(CO)cc2)c1F` [Example 186, (3S)-3-{[(1R)-1-(4-chloro-2-fluoro-3-{[4-(hydroxymethyl)-phenyl]carbonyl}phenyl)propyl]amino}-butanamide]: under setting [1], the IC50 is 0.11 µM. As to `CC[C@@H](N[C@H](C)CC(N)=O)c1ccc(Cl)c(C(=O)c2ccc(CO)cc2)c1F` [Example 187, (3R)-3-{[(1R)-1-(4-chloro-2-fluoro-3-{[4-(hydroxymethyl)-phenyl]-carbonyl}phenyl)-propyl]amino}butanamide], the IC50 under setting [1] is 0.66 µM. As for `CC[C@@H](N[C@@H](C)CC(N)=O)c1ccc(Cl)c(C(=O)c2cccc(CO)c2)c1F` [Example 188, (3S)-3-{[(1R)-1-(4-chloro-2-fluoro-3-{[3-(hydroxymethyl)-phenyl]carbonyl}phenyl)-propyl]amino}butanamide], the IC50 under setting [1] is 0.14 µM. As for `CC[C@@H](N[C@H](C)CC(N)=O)c1ccc(Cl)c(C(=O)c2cccc(CO)c2)c1F` [Example 189, (3R)-3-{[(1R)-1-(4-chloro-2-fluoro-3-{[3-(hydroxymethyl)-phenyl]-carbonyl}phenyl)-propyl]amino}butanamide], the IC50 under setting [1] was 0.54 µM. As for `C[C@H](CC(N)=O)N[C@@H](c1ccc(Cl)c(C(=O)c2ccc(N)c(C#N)c2)c1F)C1CC1` [Example 190, (3R)-3-{[(R)-{3-[(4-amino-3-cyanophenyl)carbonyl]-4-chloro-2-fluorophenyl}(cyclopropyl)methyl]amino}butanamide], the IC50 under setting [1] stood at 0.37 µM and the IC50 under setting [2] is < 30 µM. `CC[C@@H](N)c1ccc(OC)c(C(=O)c2ccc(F)cc2)c1F` [Example 191, (1R)-1-{2-fluoro-3-[(4-fluorophenyl)carbonyl]-4-methoxyphenyl}-propan-1-amine]: the IC50 was 1.1 µM under setting [1] and 1 to 5 µM under setting [3]. For the compound `CC[C@@H](N[C@@H](C)CC(N)=O)c1ccc(Cl)c(C(=O)c2cnc(NC)cn2)c1F` [Example 192, (3S)-3-{[(1R)-1-(4-chloro-2-fluoro-3-{[5-(methylamino)-pyrazin-2-yl]carbonyl}-phenyl)propyl]-amino}butanamide], the IC50 runs as follows: under setting [1], 0.63 µM; under setting [3], < 1 µM. On to `C[C@@H](CC(N)=O)N[C@@H](c1ccc(Cl)c(C(=O)c2cnc(N)cn2)c1F)C1CC1` [Example 194, (3S)-3-{[(R)-{3-[(5-aminopyrazin-2-yl)carbonyl]-4-chloro-2-fluorophenyl}(cyclo-propyl)methyl]amino}-butanamide], for which the inhibition – broadly, the percentage by which the read-out fell short of the control – at 0.3 µM (@ 0.3 uM) came to 28%. Regarding `C[C@H](CC(N)=O)N[C@@H](c1ccc(Cl)c(C(=O)c2cnc(N)cn2)c1F)C1CC1` [Example 195, (3R)-3-{[(R)-{3-[(5-aminopyrazin-2-yl)carbonyl]-4-chloro-2-fluorophenyl}(cyclo-propyl)methyl]amino}-butanamide], the IC50 under setting [1] amounted to 6.2 µM and the IC50 under setting [2] is < 30 µM.

As to `COc1ccc([C@H](N)C2CC2)c(F)c1C(=O)c1ccc(F)cc1` [Example 196, (R)-cyclopropyl({2-fluoro-3-[(4-fluorophenyl)carbonyl]-4-methoxyphenyl})methanamine], the IC50 is 2.3 µM under setting [1] and 1 to 5 µM under setting [3].

`CC[C@@H](N)c1ccc(Cl)c(C(=O)c2ccc(N)nn2)c1F` [Example 197, 6-({3-[(1R)-1-Aminopropyl]-6-chloro-2-fluorophenyl}carbonyl)pyridazin-3-amine] registered an inhibition at 10 µM of 45%. Besides, the IC50 under setting [2] is < 30 µM. Take `CC[C@@H](N)c1ccc(OC)c(C(=O)c2cccc(F)c2)c1F` [Example 198, (1R)-1-{2-fluoro-3-[(3-fluorophenyl)carbonyl]-4-methoxyphenyl}propan-1-amine]: the IC50 is, setting by setting: under setting [1], 2.4 µM; under setting [3], 1 to 5 µM.

Compound `CC[C@@H](N[C@H](C)CC(N)=O)c1ccc(OC)c(C(=O)c2ccc(F)cc2)c1F` [Example 199, (3R)-3-{[(1R)-1-{2-fluoro-3-[(4-fluorophenyl)carbonyl]-4-methoxyphenyl}propyl]amino}butanamide] had an inhibition at 100 µM (@ 100 uM) of 32%.

For the compound `CC[C@@H](N[C@@H](C)CC(N)=O)c1ccc(OC)c(C(=O)c2ccc(F)cc2)c1F` [Example 200, (3S)-3-{[(1R)-1-{2-fluoro-3-[(4-fluorophenyl)carbonyl]-4-methoxyphenyl}propyl]amino} butanamide], the IC50 reads like this: under setting [1], 0.078 µM; under setting [3], < 1 µM. As for `COc1ccc([C@H](N)C2CC2)c(F)c1C(=O)c1cccc(F)c1` [Example 201, (R)-cyclopropyl({2-fluoro-3-[(3-fluorophenyl)carbonyl]-4-methoxyphenyl})methanamine], the IC50 under setting [1] is 3 µM and the IC50 under setting [3] fell in the range of 1 to 5 µM. In the case of `C[C@H](CC(N)=O)N[C@@H](c1ccc(Cl)c(C(=O)c2ccc(N)c(Cl)c2)c1F)C1CC1` [Example 202, (3R)-3-{[(R)-{3-[(4-amino-3-chlorophenyl)carbonyl]-4-chloro-2-fluorophenyl}(cyclopropyl)methyl]amino}butanamide], the IC50 under setting [1] was 0.31 µM. On to `Cc1cc(C(=O)c2c(Cl)ccc([C@H](N[C@H](C)CC(N)=O)C3CC3)c2F)ccc1N` [Example 203, (3R)-3-{[(R)-{3-[(4-amino-3-methylphenyl)carbonyl]-4-chloro-2-fluorophenyl}(cyclopropyl)methyl]amino}butanamide], for which the IC50 under setting [1] was determined as 0.27 µM.

On to `CC[C@@H](N)c1ccc(Cl)c(C(=O)c2cccc(O)c2)c1F` [Example 204, 3-({3-[(1R)-1-aminopropyl]-6-chloro-2-fluorophenyl}-carbonyl)phenol], for which the IC50 under setting [1] stood at 0.17 µM. As for `CC[C@@H](N[C@@H](C)CC(N)=O)c1ccc(Cl)c(C(=O)c2ccnc(N)c2)c1F` [Example 205, (3S)-3-{[(1R)-1-{3-[(2-aminopyridin-4-yl)carbonyl]-4-chloro-2-fluorophenyl}propyl]amino} butanamide], the IC50 under setting [1] was determined as 0.19 µM.

Take `CC[C@@H](N[C@H](C)CC(N)=O)c1ccc(Cl)c(C(=O)c2ccnc(N)c2)c1F` [Example 206, (3R)-3-{[(1R)-1-{3-[(2-aminopyridin-4-yl)carbonyl]-4-chloro-2-fluorophenyl}propyl]amino}butanamide]: the IC50 is 1.2 µM under setting [1] and 1 to 5 µM under setting [3]. Taken in the same sequence, the figures for `CC[C@@H](N[C@@H](C)CC(N)=O)c1ccc(Cl)c(C(=O)c2ccc(NC)nc2)c1F` [Example 207, (3S)-3-{[(1R)-1-(4-chloro-2-fluoro-3-{[6-(methylamino)pyridin-3-yl]carbonyl}phenyl)propyl]amino}butanamide] were 0.37 µM and < 1 µM. For `CC[C@@H](N[C@H](C)CC(N)=O)c1ccc(Cl)c(C(=O)c2ccc(NC)nc2)c1F` [Example 208, (3R)-3-{[(1R)-1-(4-chloro-2-fluoro-3-{[6-(methylamino)pyridin-3-yl]carbonyl}phenyl)propyl]amino}butanamide], the IC50 is, setting by setting: under setting [1], 3.1 µM; under setting [3], 1 to 5 µM. Take `COc1ccc([C@H](N[C@H](C)CC(N)=O)C2CC2)c(F)c1C(=O)c1ccc(F)cc1` [Example 209, (3R)-3-{[(R)-cyclopropyl({2-fluoro-3-[(4-fluorophenyl)carbonyl]-4-methoxyphenyl})methyl]amino}butanamide]: the IC50 by setting is: under setting [1], 2.7 µM; under setting [3], 1 to 5 µM.

Turning to `COc1ccc([C@H](N[C@@H](C)CC(N)=O)C2CC2)c(F)c1C(=O)c1ccc(F)cc1` [Example 210, (3S)-3-{[(R)-cyclopropyl({2-fluoro-3-[(4-fluorophenyl)carbonyl]-4-methoxyphenyl})methyl]amino} butanamide], the IC50 is 0.098 µM under setting [1] and < 1 µM under setting [3].

Compound `CC[C@@H](N[C@H](C)CC(N)=O)c1ccc(OC)c(C(=O)c2cccc(F)c2)c1F` [Example 211, (3R)-3-{[(1R)-1-{2-fluoro-3-[(3-fluorophenyl)carbonyl]-4-methoxyphenyl}propyl]amino}butanamide] came in with an inhibition at 1 µM (@ 1 uM) of 47%. Also, under setting [3], the IC50 was 1 to 5 µM.

For the compound `CC[C@@H](N[C@@H](C)CC(N)=O)c1ccc(OC)c(C(=O)c2cccc(F)c2)c1F` [Example 212, (3S)-3-{[(1R)-1-{2-fluoro-3-[(3-fluorophenyl)carbonyl]-4-methoxyphenyl}propyl]amino}butanamide], the IC50 under setting [1] was 0.094 µM. For `CC[C@@H](N[C@@H](C)CC(N)=O)c1ccc(Cl)c(C(=O)c2ccc(N)c(C#N)c2)c1F` [Example 213, (3S)-3-{[(1R)-1-{3-[(4-amino-3-cyanophenyl)carbonyl]-4-chloro-2-fluorophenyl}propyl]amino} butanamide], under setting [1], the IC50 came out at 0.35 µM. As to `CC[C@@H](N)c1ccc(Cl)c(C(=O)c2ccc(Cl)nn2)c1F` [Example 214, (1R)-1-{4-chloro-3-[(6-chloropyridazin-3-yl)carbonyl]-2-fluorophenyl}propan-1-amine], the inhibition at 10 µM is 51%. In addition, the IC50 under setting [2] is < 30 µM. Regarding `CC[C@@H](N[C@@H](C)CC(N)=O)c1ccc(Cl)c(C(=O)c2ccc(OC)c(C#N)c2)c1F` [Example 215, (3S)-3-{[(1R)-1-{4-chloro-3-[(3-cyano-4-methoxyphenyl)carbonyl]-2-fluorophenyl}propyl]amino} butanamide], the IC50 under setting [1] is 1.2 µM and the IC50 under setting [3] was 1 to 5 µM.
